Article PMC11790914, “Chemogenomics for steroid hormone receptors (NR3)” (Communications Chemistry, 2025)
“And” between values parts separate entries of the source, which are not always exact repeats. Identical values can stand only once.

What was measured:
[1] = other targets with annotated bioactivities at ≤10 µM in previously published dataset; cited from earlier work
HEK293T cells [2] = assay: Cytotoxicity: necrosis induction (red fluorescent dye for permeable plasma membranes); type: cell-based; details: 1 µM, 24 h, necrotic cell count normalized to 0.1% DMSO, single replicates;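 further: compounds applied in DMEM high glucose with 0.1% FCS and 0.1% DMSO, necrotic HEK293T cells counted by red staining of cells whose plasma membranes had become permeable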
[3] = test system: NF-κB activity in HEK293 NF-κB reporter cells; assay: NF-kB activity assay (GFP reporter, ionomycin/PMA); type: cell-based; details: for Mean NFκB response: n=3
Method: Fig. 6 Application of the NR3 CG set.
After 24 h, cells were incubated with the test compounds solubilized with 0.1% DMSO in the same medium without puromycin. After 4 h incubation, ionomycin (100 ng/mL) and phorbol-12-myristat-13-acetate (PMA, 10 ng/mL) was added, and the cells were imaged for confluence and GFP expression every 90 min. over 24 h using a Tecan SPARK Cyto (Tecan). The number of GFP expressing cells was normalized to confluence in each sample. Each sample was repeated in three biologically independent experiments.

HEK293T cells [4] = assay: Cytotoxicity: apoptosis induction (caspase-3/7 DEVD fluorogenic DNA dye); details: 1 µM; HEK293T, 24 h; apoptotic cell count normalized to 0.1% DMSO; single replicates
HEK293T cells [5] = assay: Cytotoxicity: metabolic activity (WST-8 / CCK-8 assay); details: 1 µM; HEK293T, 24 h; WST-8; normalized to 0.1% DMSO; single replicates
HEK293T cells [6] = assay: Cytotoxicity: growth-rate (change in confluence over 24 h); details: 1 µM, normalized to 0.1% DMSO control, single replicates (n=1...)
[7] = test system: ATF6 activity in Hela ATF6 reporter cells; assay: Endoplasmic reticulum stress assay (ATF6 Renilla luciferase reporter, tunicamycin); type: cell-based; details: Homo sapiens, HeLa, 1 µM, single replicates n=1 to n=5; read-out: ER stress [rel. ATF6 activity]
Method: After 24 h, cells were incubated with the test compounds solubilized with 0.1% DMSO in the same medium without puromycin. After 4 h incubation, tunicamycin (100 ng/mL) was added. After another 18 h incubation, cells were assayed for renilla luminescence using DualGlo reagent (Promega) on a Tecan SPARK Cyto (Tecan). Test samples were normalized to the 0.1% DMSO control. Each sample was repeated in five biologically independent experiments.

CC(=O)[C@@]1(O)CC[C@H]2[C@@H]3CCC4=CC(=O)CC[C@]4(C)[C@H]3CC[C@@]21C [Hydroxyprogesterone]
Reason for exclusion: number of annotated off-targets [1]: > 5 off-targets

C[C@]12C=CC(=O)C=C1CC[C@H]1[C@@H]3C[C@@H](O)[C@](O)(C(=O)CO)[C@@]3(C)C[C@H](O)[C@@]12F [Triamcinolone]
Reason for exclusion: number of annotated off-targets [1]: > 5 off-targets

CC(O)(CS(=O)(=O)c1ccc(F)cc1)C(=O)Nc1ccc(C#N)c(C(F)(F)F)c1 (centres unmarked) [Bicalutamide]
Reason for exclusion: number of annotated off-targets [1]: > 5 off-targets

COc1ccc2c(c1)c(CC(=O)O)c(C)n2C(=O)c1ccc(Cl)cc1 [Indomethacin]
Reason for exclusion: number of annotated off-targets [1]: > 5 off-targets

O=c1oc2cc(O)ccc2c2oc3cc(O)ccc3c12 [Coumestrol]
Reason for exclusion: number of annotated off-targets [1]: > 5 off-targets

C[C@]12CC[C@H]3[C@@H](CCC4=CC(=O)CC[C@@]43C)[C@@H]1CC[C@@H]2O [Testosterone]
Reason for exclusion: number of annotated off-targets [1]: > 5 off-targets

CC(=O)S[C@@H]1CC2=CC(=O)CC[C@]2(C)[C@H]2CC[C@@]3(C)[C@@H](CC[C@@]34CCC(=O)O4)[C@H]12 [Spironolactone]
Reason for exclusion: number of annotated off-targets [1]: > 5 off-targets

C[C@]12CC[C@@H]3c4ccc(OC(=O)c5ccccc5)cc4CC[C@H]3[C@@H]1CC[C@@H]2O [Estradiol benzoate]
Reason for exclusion: number of annotated off-targets [1]: > 5 off-targets

C[C@]12CC[C@H](O)CC1=CC[C@@H]1[C@@H]2CC[C@]2(C)C(n3cnc4ccccc43)=CC[C@@H]12 [Galeterone]
Reason for exclusion: number of annotated off-targets [1]: > 5 off-targets

CC(C)C(=O)Nc1ccc([N+](=O)[O-])c(C(F)(F)F)c1 [Flutamide]
Reason for exclusion: number of annotated off-targets [1]: > 5 off-targets

C/C=C1/C(=O)C[C@H]2[C@@H]3CCC4=CC(=O)CC[C@]4(C)[C@H]3CC[C@]12C [E-Guggulsterone]
Reason for exclusion: number of annotated off-targets [1]: > 5 off-targets

O=c1c(-c2ccc(O)cc2)coc2cc(O)ccc12 [Daidzein]
Reason for exclusion: number of annotated off-targets [1]: > 5 off-targets

C[C@]12C=CC(=O)C=C1CC[C@@H]1[C@@H]2[C@@H](O)C[C@@]2(C)[C@H]1CC[C@]2(O)C(=O)CO [Prednisolone]
Reason for exclusion: number of annotated off-targets [1]: > 5 off-targets

COc1cc([C@@H]2c3cc4c(cc3[C@H](O)[C@H]3COC(=O)[C@H]23)OCO4)cc(OC)c1OC [Podophyllotoxin]
Reason for exclusion: number of annotated off-targets [1]: > 5 off-targets

CC/C(=C(\c1ccccc1)c1ccc(OCCN(C)C)cc1)c1ccccc1 [Tamoxifen]
Reason for exclusion: number of annotated off-targets [1]: > 5 off-targets

CCC(=C(c1ccc(O)cc1)c1ccc(OCCN(C)C)cc1)c1ccccc1 [(E,Z)-Hydroxytamoxifen]
Reason for exclusion: number of annotated off-targets [1]: > 5 off-targets

C[C@]12CC[C@@H]3c4ccc(O)cc4CC[C@H]3[C@@H]1C[C@@H](O)[C@@H]2O [Estriol]
Reason for exclusion: number of annotated off-targets [1]: > 5 off-targets

CCN(CC)CCOc1ccc(/C(=C(/Cl)c2ccccc2)c2ccccc2)cc1.Cl [Enclomiphene hydrochloride]
Reason for exclusion: number of annotated off-targets [1]: > 5 off-targets

C[C@]12CC[C@@H]3c4ccc(O)cc4CC[C@H]3[C@@H]1CC[C@@H]2O [17β-Estradiol]
Reason for exclusion: number of annotated off-targets [1]: > 5 off-targets

CC(=O)O[C@]1(C(C)=O)CC[C@H]2[C@@H]3C[C@H](C)C4=CC(=O)CC[C@]4(C)[C@H]3CC[C@@]21C [Medroxyprogesterone acetate]
Reason for exclusion: number of annotated off-targets [1]: > 5 off-targets

Oc1c(Cl)cc(Cl)c(Cl)c1Cc1c(O)c(Cl)cc(Cl)c1Cl [Hexachlorophene]
Reason for exclusion: number of annotated off-targets [1]: > 5 off-targets

CC(=O)[C@H]1CC[C@H]2[C@@H]3CCC4=CC(=O)CC[C@]4(C)[C@H]3CC[C@]12C [Progesterone]
Reason for exclusion: number of annotated off-targets [1]: > 5 off-targets

C[C@]12CCC(=O)C[C@@H]1CC[C@@H]1[C@@H]2CC[C@]2(C)[C@@H](O)CC[C@@H]12 [Dihydrotestosterone]
Reason for exclusion: number of annotated off-targets [1]: > 5 off-targets

C[C@@H]1C[C@H]2[C@@H]3C[C@H](F)C4=CC(=O)C=C[C@]4(C)[C@@]3(F)[C@@H](O)C[C@]2(C)[C@@]1(OC(=O)c1ccco1)C(=O)SCF [Fluticasone furoate]
Reason for exclusion: number of annotated off-targets [1]: > 5 off-targets

CNC(=O)c1ccc(N2C(=S)N(c3ccc(C#N)c(C(F)(F)F)c3)C(=O)C2(C)C)cc1F [Enzalutamide]
Necrosis induction [NI] (HEK293T cells [2]): 0.88 and 0.97 and 0.94 and 0.81 | Mean NFκB response ([3]; 1 µM, 1,5 h): 4053.16 GFP+-cells/confluence ∙ 1000 | Mean NFκB response ([3]; 1 µM, 4,5 h): 4748.63 GFP+-cells/confluence ∙ 1000 | Mean NFκB response ([3]; 1 µM, 7,5 h): 9147.14 GFP+-cells/confluence ∙ 1000 | Mean NFκB response ([3]; 1 µM, 10,5 h): 19308.05 GFP+-cells/confluence ∙ 1000 | Mean NFκB response ([3]; 1 µM, 13,5 h): 27440.00 GFP+-cells/confluence ∙ 1000 | Mean NFκB response ([3]; 1 µM, 16,6 h): 33976.67 GFP+-cells/confluence ∙ 1000 | Mean NFκB response ([3]; 1 µM, 19,5 h): 37833.33 GFP+-cells/confluence ∙ 1000 | Mean NFκB response ([3]; 1 µM, 22,5 h): 41216.67 GFP+-cells/confluence ∙ 1000 | Mean NFκB response ([3]; 1 µM, 3 h): 4315.98 GFP+-cells/confluence ∙ 1000 | Mean NFκB response ([3]; 1 µM, 6 h): 6007.28 GFP+-cells/confluence ∙ 1000 | Mean NFκB response ([3]; 1 µM, 9 h): 14317.85 GFP+-cells/confluence ∙ 1000 | Mean NFκB response ([3]; 1 µM, 12 h): 23650.00 GFP+-cells/confluence ∙ 1000 | Mean NFκB response ([3]; 1 µM, 15 h): 31096.67 GFP+-cells/confluence ∙ 1000 | Mean NFκB response ([3]; 1 µM, 18 h): 36023.33 GFP+-cells/confluence ∙ 1000 | Mean NFκB response ([3]; 1 µM, 21 h): 39446.67 GFP+-cells/confluence ∙ 1000 | Mean NFκB response ([3]; 1 µM, 24 h): 42106.67 GFP+-cells/confluence ∙ 1000 | NF-κB activity (inflammatory response to ionomycin/PMA) ([3]; HEK293 NF-κB reporter cells, compounds at recommended concentrations, imaged over 24 h, n = 3): tended to enhance NF-κB activity | Apoptosis induction [AI] (HEK293T cells [4]): 0.86 and 1.10 and 1.13 and 0.75 and 1.01 and 0.84 | Metabolic activity [MA] (HEK293T cells [5]): 1.02 and 1.04 and 1.01 (2×) and 0.98 and 1.13 | Growth rate [GR] (HEK293T cells [6]): 0.61 and 1.23 and 0.75 and 1.17 and 0.84 and 0.95 and 1.00 and 2.30 and 3.82 and 0.45 | activity at 1 µM [7]: 99% and 117%

O=c1c(-c2ccc(O)cc2)coc2cc(O)cc(O)c12 [Genistein]
Reason for exclusion: number of annotated off-targets [1]: > 5 off-targets
